Experiments:
TBK1 = TBK1 (Homo sapiens (Human), UniProt Q9UHD2); experiment: TR-FRET kinase assay, TBK1; conditions: read-out: TBK1-IC50; full length recombinant TBK1 2.5 nM, 2x Km ATP, 1 μM peptide, 240 min at 25° C.; geometric mean of minimum four determinations
Sequence of TBK1 (Q9UHD2 whole entry): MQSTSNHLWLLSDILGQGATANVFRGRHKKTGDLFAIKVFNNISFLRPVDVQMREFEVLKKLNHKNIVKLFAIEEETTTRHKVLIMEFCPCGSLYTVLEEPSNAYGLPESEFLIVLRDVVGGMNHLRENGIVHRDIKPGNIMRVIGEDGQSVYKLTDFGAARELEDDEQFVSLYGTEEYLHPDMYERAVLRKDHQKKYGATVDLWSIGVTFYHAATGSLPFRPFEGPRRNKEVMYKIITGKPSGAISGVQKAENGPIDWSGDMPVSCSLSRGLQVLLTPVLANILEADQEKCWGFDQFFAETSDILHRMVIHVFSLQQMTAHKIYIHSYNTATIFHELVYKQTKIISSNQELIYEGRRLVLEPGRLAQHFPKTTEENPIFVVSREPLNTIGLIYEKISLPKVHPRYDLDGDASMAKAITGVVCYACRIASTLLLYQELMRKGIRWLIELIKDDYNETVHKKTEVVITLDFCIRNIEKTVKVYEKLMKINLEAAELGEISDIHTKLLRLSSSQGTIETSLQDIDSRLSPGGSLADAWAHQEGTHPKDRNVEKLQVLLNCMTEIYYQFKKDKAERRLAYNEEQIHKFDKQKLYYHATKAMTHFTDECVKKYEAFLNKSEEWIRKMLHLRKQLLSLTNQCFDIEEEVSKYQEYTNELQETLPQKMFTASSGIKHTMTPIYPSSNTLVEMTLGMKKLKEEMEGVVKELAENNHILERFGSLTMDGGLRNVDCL

IKKε = IKKε (Homo sapiens (Human), UniProt Q14164); experiment: TR-FRET kinase assay, IKKε; assay type: biochemical; conditions: full length recombinant IKKε 0.3 nM, 2x Km ATP, 1 μM peptide, 240 min at 25° C.; geometric mean of minimum four determinations
Sequence of IKKε (Q14164 whole entry): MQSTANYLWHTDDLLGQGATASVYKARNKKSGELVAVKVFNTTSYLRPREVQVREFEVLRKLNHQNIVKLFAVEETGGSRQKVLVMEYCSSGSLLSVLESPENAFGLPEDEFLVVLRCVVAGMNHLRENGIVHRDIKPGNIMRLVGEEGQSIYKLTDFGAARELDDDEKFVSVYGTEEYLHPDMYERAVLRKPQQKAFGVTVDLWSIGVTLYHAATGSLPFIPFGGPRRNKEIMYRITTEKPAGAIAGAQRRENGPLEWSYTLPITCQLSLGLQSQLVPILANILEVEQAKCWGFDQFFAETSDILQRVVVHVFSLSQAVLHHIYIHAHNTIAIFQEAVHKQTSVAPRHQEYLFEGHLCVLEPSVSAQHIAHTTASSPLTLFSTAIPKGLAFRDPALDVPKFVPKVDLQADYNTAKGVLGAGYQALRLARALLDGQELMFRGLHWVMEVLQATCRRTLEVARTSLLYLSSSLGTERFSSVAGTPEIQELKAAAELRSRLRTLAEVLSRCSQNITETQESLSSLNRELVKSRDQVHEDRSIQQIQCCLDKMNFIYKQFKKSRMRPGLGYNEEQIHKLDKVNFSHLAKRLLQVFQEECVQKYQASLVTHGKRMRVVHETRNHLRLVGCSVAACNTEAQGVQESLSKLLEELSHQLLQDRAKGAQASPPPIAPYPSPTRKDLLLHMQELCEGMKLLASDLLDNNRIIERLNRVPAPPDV
Description: Biological Assay for TBK1 and IKKs:

Compound: N#Cc1cc(-c2ccnc3[nH]c(-c4ccc(N5CCOCC5)cc4)cc23)ccc1OC1CCCOC1 (stereo not drawn) [Example 239, 5-(2-(4-morpholinophenyl)-1H-pyrrolo[2,3-b]pyridin-4-yl)-2-((tetrahydro-2H-pyran-3-yl)oxy)benzonitrile]
- IC50 (TBK1): 44.7 nM
- IC50 (IKKε): 193 nM

Compound: CS(=O)(=O)N1CCN(c2ccc(-c3cc4c(-c5ccc(OC6CCOCC6)c(C#N)c5)ncnc4[nH]3)cc2)CC1 [Example 215, 5-(6-(4-(4-(methylsulfonyl)piperazin-1-yl)phenyl)-7H-pyrrolo[2,3-d]pyrimidin-4-yl)-2-((tetrahydro-2H-pyran-4-yl)oxy)benzonitrile]
- IC50 (TBK1): 1.42 nM
- IC50 (IKKε): 3.15 nM

Compound: N#Cc1cc(-c2ncnc3[nH]c(-c4ccc(OC(F)(F)F)cc4)cc23)ccc1OC1CCN(C(=O)CO)CC1 [Example 128, 2-((1-(2-hydroxyacetyl)piperidin-4-yl)oxy)-5-(6-(4-(trifluoromethoxy)phenyl)-7H-pyrrolo[2,3-d]pyrimidin-4-yl)benzonitrile]
- IC50 (TBK1): 4.21 nM
- IC50 (IKKε): 13.6 nM

Compound: N#Cc1cc(-c2ncnc3[nH]c(-c4ccc(N5CCOCC5)c(F)c4)cc23)ccc1OC1CCN(C(=O)CO)CC1 [Example 158, 5-(6-(3-fluoro-4-morpholinophenyl)-7H-pyrrolo[2,3-d]pyrimidin-4-yl)-2-((1-(2-hydroxyacetyl)piperidin-4-yl)oxy)benzonitrile]
- IC50 (TBK1): 1.02 nM
- IC50 (IKKε): 2.39 nM

Compound: CN1CCN(c2ccc(-c3nc4c(-c5ccc(OC6CCN(C=O)CC6)c(C#N)c5)ncnc4[nH]3)cc2)CC1 [Example 254, 2-((1-formylpiperidin-4-yl)oxy)-5-(8-(4-(4-methylpiperazin-1-yl)phenyl)-9H-purin-6-yl)benzonitrile]
- IC50 (TBK1): 4.22 nM
- IC50 (IKKε): 2.69 nM

Compound: CC(C)NC(=O)c1cc2c(-c3ccc(OC4CCOCC4)c(C#N)c3)ccnc2[nH]1 [Example 60, 4-(3-cyano-4-((tetrahydro-2H-pyran-4-yl)oxy)phenyl)-N-isopropyl-1H-pyrrolo[2,3-b]pyridine-2-carboxamide]
- IC50 (TBK1): 63.8 nM
- IC50 (IKKε): 44.5 nM

Compound: CC(C)(O)c1ccc(-c2cc3c(-c4cc(C#N)c(OC5CCOCC5)cn4)ccnc3[nH]2)cc1 [Example 170, 2-(2-(4-(2-Hydroxypropan-2-yl)phenyl)-1H-pyrrolo[2,3-b]pyridin-4-yl)-5-((tetrahydro-2H-pyran-4-yl)oxy)isonicotinonitrile]
- IC50 (TBK1): 3.84 nM
- IC50 (IKKε): 8.18 nM

Compound: N#Cc1cc(-c2ncnc3[nH]c(-c4ccc(C5CCN(CC(F)(F)F)CC5)cc4)nc23)ccc1OC1CCN(C(=O)CO)CC1 [Example 257, 2-((1-(2-hydroxyacetyl)piperidin-4-yl)oxy)-5-(8-(4-(1-(2,2,2-trifluoroethyl)piperidin-4-yl)phenyl)-9H-purin-6-yl)benzonitrile]
- IC50 (TBK1): 3.8 nM
- IC50 (IKKε): 14 nM

Compound: N#Cc1cc(-c2ccnc3[nH]c(-c4ccc(N5CCOCC5)cc4)cc23)ccc1OC1CCNCC1 [Example 18, 5-(2-(4-morpholinophenyl)-1H-pyrrolo[2,3-b]pyridin-4-yl)-2-(piperidin-4-yloxy)benzonitrile]
- IC50 (TBK1): 17.1 nM
- IC50 (IKKε): 33.2 nM

Compound: N#Cc1cc(-c2ccnc3[nH]c(-c4ccc(N5CCOCC5)cc4)cc23)ccc1OCC1CC1 [Example 80, 2-(cyclopropylmethoxy)-5-(2-(4-morpholinophenyl)-1H-pyrrolo[2,3-b]pyridin-4-yl)benzonitrile]
- IC50 (TBK1): 16.8 nM
- IC50 (IKKε): > 1000 nM

Compound: N#Cc1cc(-c2ncnc3[nH]c(-c4ccc(N5CCOCC5)c(F)c4)cc23)ccc1OC1CCOCC1 [Example 156, 5-(6-(3-fluoro-4-morpholinophenyl)-7H-pyrrolo[2,3-d]pyrimidin-4-yl)-2-((tetrahydro-2H-pyran-4-yl)oxy)benzonitrile]
- IC50 (TBK1): 2.78 nM
- IC50 (IKKε): 14.3 nM

Compound: CC(C)(C)OC(=O)n1ccc2cc(-c3cc4c(-c5ccc(OC6CCOCC6)c(C#N)c5)ccnc4[nH]3)ccc21 [Example 44, tert-butyl 5-(4-(3-cyano-4-((tetrahydro-2H-pyran-4-yl)oxy)phenyl)-1H-pyrrolo[2,3-b]pyridin-2-yl)-1H-indole-1-carboxylate]
- IC50 (TBK1): > 1000 nM
- IC50 (IKKε): > 1000 nM

Compound: N#Cc1cc(-c2ncnc3[nH]c(-c4ccc(C(=O)N5CCOCC5)cc4)cc23)ccc1OC1CCOCC1 [Example 186, 5-(6-(4-(morpholine-4-carbonyl)phenyl)-7H-pyrrolo[2,3-d]pyrimidin-4-yl)-2-((tetrahydro-2H-pyran-4-yl)oxy)benzonitrile]
- IC50 (TBK1): 1.62 nM
- IC50 (IKKε): 4.96 nM

Compound: N#Cc1cccc(-c2ccnc3[nH]c(-c4ccc(N5CCOCC5)cc4)cc23)c1 [Example 79, 3-(2-(4-morpholinophenyl)-1H-pyrrolo[2,3-b]pyridin-4-yl)benzonitrile]
- IC50 (TBK1): 28.2 nM
- IC50 (IKKε): > 1000 nM

Compound: N#Cc1cc(-c2ccnc3[nH]c(-c4cccc(CN5CCOCC5)c4)cc23)ccc1OC1CCOCC1 [Example 39, 5-(2-(3-(morpholinomethyl)phenyl)-1H-pyrrolo[2,3-b]pyridin-4-yl)-2-((tetrahydro-2H-pyran-4-yl)oxy)benzonitrile]
- IC50 (TBK1): 10.1 nM
- IC50 (IKKε): 10.7 nM

Compound: N#Cc1cc(-c2ncnc3[nH]c(-c4ccc(=O)[nH]c4)cc23)ccc1OC1CCOCC1 [Example 183, 5-(6-(6-oxo-1,6-dihydropyridin-3-yl)-7H-pyrrolo[2,3-d]pyrimidin-4-yl)-2-((tetrahydro-2H-pyran-4-yl)oxy)benzonitrile]
- IC50 (TBK1): 18.9 nM
- IC50 (IKKε): 34.7 nM

Compound: O=C1NCc2cc(-c3cc4c(-c5ccc6c(c5)CNC6=O)ncnc4[nH]3)ccc21 [Example 224, 5,5′-(7H-pyrrolo[2,3-d]pyrimidine-4,6-diyl)bis(isoindolin-1-one)]
- IC50 (TBK1): 1000 nM
- IC50 (IKKε): 1000 nM

Compound: COc1ccc(-c2cc3c(-c4ccc(OC5CCN(C(=O)CO)CC5)c(C#N)c4)ncnc3[nH]2)cn1 [Example 130, 2-((1-(2-hydroxyacetyl)piperidin-4-yl)oxy)-5-(6-(6-methoxypyridin-3-yl)-7H-pyrrolo[2,3-d]pyrimidin-4-yl)benzonitrile]
- IC50 (TBK1): 5.43 nM
- IC50 (IKKε): 10.6 nM

Compound: COc1cc(-c2cc3c(-c4ccc(OC5CCOCC5)c(C#N)c4)ncnc3[nH]2)ccc1N1CCN(C(=O)CO)CC1 [Example 134, 5-(6-(4-(4-(2-hydroxyacetyl)piperazin-1-yl)-3-methoxyphenyl)-7H-pyrrolo[2,3-d]pyrimidin-4-yl)-2-((tetrahydro-2H-pyran-4-yl)oxy)benzonitrile]
- IC50 (TBK1): 1.09 nM
- IC50 (IKKε): 6.09 nM

Compound: N#Cc1cc(-c2ccnc3[nH]c(-c4ccc(N5CCOCC5)cc4)cc23)ccc1O[C@@H]1CCN(C2COC2)C1 [Example 87, (R)-5-(2-(4-morpholinophenyl)-1H-pyrrolo[2,3-b]pyridin-4-yl)-2-((1-(oxetan-3-yl)pyrrolidin-3-yl)oxy)benzonitrile]
- IC50 (TBK1): 26.8 nM
- IC50 (IKKε): 63 nM

Compound: O=C1NCc2cc(-c3ncnc4[nH]c(-c5ccc(N6CCOCC6)cc5)cc34)ccc21 [Example 221, 5-(6-(4-morpholinophenyl)-7H-pyrrolo[2,3-d]pyrimidin-4-yl)isoindolin-1-one]
- IC50 (TBK1): 1000 nM
- IC50 (IKKε): 1000 nM

Compound: N#Cc1cc(-c2ncnc3[nH]c(-c4ccc(N5CCOCC5)cc4)nc23)ccc1OC1CCNCC1 [Example 204, 5-(8-(4-morpholinophenyl)-9H-purin-6-yl)-2-(piperidin-4-yloxy)benzonitrile]
- IC50 (TBK1): 36.8 nM
- IC50 (IKKε): 83.7 nM

Compound: N#Cc1cc(-c2ccnc3[nH]c(-c4cnn(C5CCNCC5)c4)cc23)ccc1OC1CCOCC1 [Example 10, 5-(2-(1-(piperidin-4-yl)-1H-pyrazol-4-yl)-1H-pyrrolo[2,3-b]pyridin-4-yl)-2-((tetrahydro-2H-pyran-4-yl)oxy)benzonitrile]
- IC50 (TBK1): 1.22 nM
- IC50 (IKKε): 1.74 nM

Compound: CN1CCN(C(=O)c2ccc(-c3cc4c(-c5ccc(OC6CCOCC6)c(C#N)c5)ncnc4[nH]3)cc2)CC1 [Example 187, 5-(6-(4-(4-methylpiperazine-1-carbonyl)phenyl)-7H-pyrrolo[2,3-d]pyrimidin-4-yl)-2-((tetrahydro-2H-pyran-4-yl)oxy)benzonitrile]
- IC50 (TBK1): 1.16 nM
- IC50 (IKKε): 1.88 nM

Compound: N#Cc1cc(-c2ncnc3[nH]c(-c4ccc(N5CCOCC5)cc4)cc23)ccc1CN1CCOCC1 [Example 112, 2-(morpholinomethyl)-5-(6-(4-morpholinophenyl)-7H-pyrrolo[2,3-d]pyrimidin-4-yl)benzonitrile]
- IC50 (TBK1): 19.6 nM
- IC50 (IKKε): 85 nM

Compound: N#Cc1cc(-c2ccnc3[nH]c(C(=O)Nc4ccccc4)cc23)ccc1OC1CCOCC1 [Example 61, 4-(3-cyano-4-((tetrahydro-2H-pyran-4-yl)oxy)phenyl)-N-phenyl-1H-pyrrolo[2,3-b]pyridine-2-carboxamide]
- IC50 (TBK1): 312 nM
- IC50 (IKKε): 112 nM

Compound: Cn1cc(-c2cc3c(-c4ccc(OC5CCOCC5)c(C#N)c4)ccnc3[nH]2)cn1 [Example 84, 5-(2-(1-methyl-1H-pyrazol-4-yl)-1H-pyrrolo[2,3-b]pyridin-4-yl)-2-((tetrahydro-2H-pyran-4-yl)oxy)benzonitrile]
- IC50 (TBK1): 3.68 nM
- IC50 (IKKε): 4.71 nM

Compound: COc1cc(-c2cc3c(-c4ccc(N5CC[C@@H](O)C5)c(C#N)c4)ncnc3[nH]2)ccc1N1CCN(C2COC2)CC1 [Example 142, (R)-2-(3-hydroxypyrrolidin-1-yl)-5-(6-(3-methoxy-4-(4-(oxetan-3-yl)piperazin-1-yl)phenyl)-7H-pyrrolo[2,3-d]pyrimidin-4-yl)benzonitrile]
- IC50 (TBK1): 2.03 nM
- IC50 (IKKε): 14.7 nM

Compound: CC(C)(O)c1ccc(-c2cc3c(-c4ccc(OC5CCOCC5)c(C#N)c4)c(F)cnc3[nH]2)cc1 [Example 173, 5-(5-fluoro-2-(4-(2-hydroxypropan-2-yl)phenyl)-1H-pyrrolo[2,3-b]pyridin-4-yl)-2-((tetrahydro-2H-pyran-4-yl)oxy)benzonitrile]
- IC50 (TBK1): 15.6 nM
- IC50 (IKKε): 115 nM

Compound: N#Cc1cc(-c2ncnc3[nH]c(-c4ccc(N5CCOCC5)cc4)nc23)ccc1OC1CCOCC1 [Example 201, 5-(8-(4-morpholinophenyl)-9H-purin-6-yl)-2-((tetrahydro-2H-pyran-4-yl)oxy)benzonitrile]
- IC50 (TBK1): 3 nM
- IC50 (IKKε): 19.7 nM
